Assay results: ChEMBL document CHEMBL5523739, “NN1213 - A Potent, Long-Acting, and Selective Analog of Human Amylin” (J Med Chem, 2024)
≈ marks a conversion by molar mass, not a printed value. Bridge positions count the residues as written; N and C are the ends. Peptide text beside a SMILES is read from it.

What was measured:
[1] = target: T1, Amylin receptor AMY3; CALCR/RAMP3 (Homo sapiens, UniProt O60896+P30988); test: Agonist activity at human AMY3R complex of CTR/RAMP3 expressed in Baby hamster kidney cells incubated for 3 hrs followed by medium replacement without compound measured after 30 mins by luciferase reporter assay; format: functional, cell-based, Baby hamster kidney cell
T1 sequence (P30988 whole entry): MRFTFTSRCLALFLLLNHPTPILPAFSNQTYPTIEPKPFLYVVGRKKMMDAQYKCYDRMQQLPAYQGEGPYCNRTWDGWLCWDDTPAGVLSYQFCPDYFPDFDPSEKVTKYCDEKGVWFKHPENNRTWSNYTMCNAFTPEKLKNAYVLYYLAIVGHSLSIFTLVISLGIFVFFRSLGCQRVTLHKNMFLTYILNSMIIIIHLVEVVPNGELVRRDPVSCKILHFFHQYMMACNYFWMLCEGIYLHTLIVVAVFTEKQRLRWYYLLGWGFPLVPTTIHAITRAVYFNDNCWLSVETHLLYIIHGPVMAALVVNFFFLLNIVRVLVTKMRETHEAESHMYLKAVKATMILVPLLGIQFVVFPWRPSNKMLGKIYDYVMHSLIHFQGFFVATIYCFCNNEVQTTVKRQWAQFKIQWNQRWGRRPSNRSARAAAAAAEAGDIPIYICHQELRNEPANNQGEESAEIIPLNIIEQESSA
T1 sequence (O60896 whole entry): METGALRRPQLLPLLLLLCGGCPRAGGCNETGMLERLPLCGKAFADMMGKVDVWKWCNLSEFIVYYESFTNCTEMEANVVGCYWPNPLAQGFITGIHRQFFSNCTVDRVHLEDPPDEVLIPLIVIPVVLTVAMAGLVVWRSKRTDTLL

Calcitonin receptor [2] = target: T2, Calcitonin receptor (Homo sapiens, UniProt P30988); test: Agonist activity at human CTR expressed in Baby hamster kidney cells incubated for 3 hrs followed by medium replacement without compound measured after 30 mins by luciferase reporter assay; format: functional, cell-based, Baby hamster kidney cell
T2 sequence (P30988 whole entry): T1 sequence (P30988 whole entry)

Homo sapiens = species: Homo sapiens; test: Selectivity ratio of EC50 for human CTR expressed in Baby hamster kidney cells to EC50 for human AMY3R complex of CTR/RAMP3 expressed in Baby hamster kidney cells; format: cell-based
[3] = Solubility of compound at pH 3 incubated overnight by UPLC analysis; format: physicochemical; settings: buffer
[4] = Solubility of compound at pH 4 incubated overnight by UPLC analysis; format: physicochemical; settings: buffer
[5] = Solubility of compound at pH 5 incubated overnight by UPLC analysis; format: physicochemical; settings: buffer
[6] = Solubility of compound at pH 6 incubated overnight by UPLC analysis; format: physicochemical; settings: buffer
[7] = Solubility of compound at pH 6.5 incubated overnight by UPLC analysis; format: physicochemical; settings: buffer
[8] = Solubility of compound at pH 7 incubated overnight by UPLC analysis; format: physicochemical; settings: buffer
[9] = Solubility of compound at pH 7.5 incubated overnight by UPLC analysis; format: physicochemical; settings: buffer
[10] = Solubility of compound at pH 8 incubated overnight by UPLC analysis; format: physicochemical; settings: buffer
[11] = Stability against amyloid fibril formation at pH 7.5 assessed as lag time at 1 uM measured after 45 hrs by ThT assay; format: physicochemical; settings: pH 7.5, 45 h
[12] = Stability against amyloid fibril formation at pH 7.5 assessed as compound recovery at 1 uM measured after 45 hrs by ThT assay; format: physicochemical; settings: pH 7.5, 45 h
Calcitonin receptor [13] = target: T2, Calcitonin receptor; test: Displacement of 125I-Calcitonin from human CTR expressed in Baby hamster kidney cell membrane incubated for 120 mins by SPA method; format: cell membranes

EC50 [1]	EC50 (Calcitonin receptor [2])	solubility [3]	solubility [4]	solubility [5]	solubility [6]	solubility [7]	solubility [8]	solubility [9]	solubility [10]	Time [11]	Drug recovery [12]	Structure (SMILES)	Ratio EC50 (Homo sapiens)	IC50 (Calcitonin receptor [13])
1.54 nM	1.37 nM	≥ 200 µM	≥ 200 µM	≥ 200 µM	≥ 200 µM	75 µM (≈ 296 µg/mL)	7 µM (≈ 27.6 µg/mL)	7 µM (≈ 27.6 µg/mL)	15 µM (≈ 59.1 µg/mL)	0 h	0%	CC(C)C[C@H](NC(=O)[C@H](CCCNC(=N)N)NC(=O)[C@H](CCC(N)=O)NC(=O)[C@@H](NC(=O)[C@H](C)NC(=O)[C@@H]1CSSC[C@H](NC(=O)[C@@H](N)CCCCN)C(=O)N[C@@H](CC(N)=O)C(=O)N[C@@H]([C@@H](C)O)C(=O)N[C@@H](C)C(=O)N[C@@H]([C@@H](C)O)C(=O)N1)[C@@H](C)O)C(=O)N[C@@H](C)C(=O)N[C@@H](CC(=O)O)C(=O)N[C@@H](Cc1ccccc1)C(=O)N[C@@H](CC(C)C)C(=O)N[C@@H](CCCNC(=N)N)C(=O)N[C@@H](Cc1c[nH]cn1)C(=O)N[C@@H](CO)C(=O)N[C@@H](CO)C(=O)N[C@@H](CCC(N)=O)C(=O)N[C@@H](CC(N)=O)C(=O)N[C@@H](Cc1ccccc1)C(=O)NCC(=O)N[C@@H](C)C(=O)N1CCC[C@H]1C(=O)N[C@@H](CC(C)C)C(=O)N[C@@H](CO)C(=O)N[C@@H](CO)C(=O)N[C@H](C(=O)N[C@@H](CC(N)=O)C(=O)N[C@H](C(=O)NCC(=O)N[C@@H](CO)C(=O)N1CCC[C@H]1C(=O)N[C@H](C(=O)N[C@@H](Cc1ccc(O)cc1)C(N)=O)[C@@H](C)O)C(C)C)[C@@H](C)O (H-KCNTATCATQRLADFLRHSSQNFGAPLSSTNVGSPTY-NH2; disulfide 2-7)	0.9	–
